Measurements: the CheMixHub viscosity set

Assay: xn = mol fraction of the nth substance listed

CCC(=O)CC + CCOC(=O)OCC
viscosity [mPa·s], 101 kPa
Conditions | x2 = 0.0893 | x2 = 0.1498 | x2 = 0.2601 | x2 = 0.3555 | x2 = 0.4667 | x2 = 0.5689 | x2 = 0.6701 | x2 = 0.7565 | x2 = 0.8858 | x2 = 0.9501
303.15 K | 0.452 | 0.468 | 0.496 | 0.521 | 0.55 | 0.578 | 0.606 | 0.631 | 0.668 | 0.686
308.15 K | 0.417 | 0.431 | 0.457 | 0.481 | 0.509 | 0.535 | 0.563 | 0.586 | 0.622 | 0.641
313.15 K | 0.405 | 0.417 | 0.439 | 0.459 | 0.484 | 0.508 | 0.532 | 0.554 | 0.589 | 0.607

NCCO + CN1CCCC1=O
viscosity [mPa·s], 101 kPa
Conditions | 293.15 K | 298.15 K | 303.15 K | 308.15 K | 313.15 K | 318.15 K | 323.15 K
x1 = 0.1558 | 2.99 | 2.712 | 2.484 | 2.293 | 2.133 | 1.996 | –
x1 = 0.3001 | 3.547 | 3.176 | 2.869 | 2.612 | 2.397 | 2.218 | 2.065
x1 = 0.4204 | 4.72 | 4.121 | 3.633 | 3.236 | 2.909 | 2.638 | 2.415
x2 = 0.2076 | – | – | 10.07 | – | 6.755 | – | 5.018
x2 = 0.4003 | – | – | 6.647 | – | 4.811 | – | 3.622
x2 = 0.5994 | – | – | 4.361 | – | 3.317 | – | 2.559
x2 = 0.7992 | – | – | 2.604 | – | 2.118 | – | 1.799

CN1CCCC1=O + CN(C)C=O
viscosity [mPa·s], 101 kPa
Conditions | x2 = 0.1003 | x2 = 0.2001 | x2 = 0.2997 | x2 = 0.4 | x2 = 0.5007 | x2 = 0.595 | x2 = 0.7 | x2 = 0.8 | x2 = 0.9003
303.15 K | 1.417 | 1.328 | 1.249 | 1.17 | 1.085 | 1.018 | 0.943 | 0.872 | 0.809
313.15 K | 1.231 | 1.152 | 1.085 | 1.02 | 0.948 | 0.891 | 0.832 | 0.775 | 0.721
323.15 K | 1.097 | 1.024 | 0.967 | 0.908 | 0.846 | 0.794 | 0.742 | 0.692 | 0.646

CCC(=O)CC + CN(C)c1ccccc1
viscosity [mPa·s], 101 kPa
Conditions | 303.15 K | 308.15 K
x2 = 0.0612 | 0.548 | 0.499
x2 = 0.1145 | 0.645 | 0.588
x2 = 0.1652 | 0.732 | 0.668
x2 = 0.2302 | 0.832 | 0.764
x2 = 0.3025 | 0.928 | 0.859
x2 = 0.3741 | 1.006 | 0.935
x2 = 0.4256 | 1.053 | 0.98
x2 = 0.5023 | 1.105 | 1.029
x2 = 0.5714 | 1.137 | 1.056
x2 = 0.6325 | 1.155 | 1.069
x2 = 0.7045 | 1.165 | 1.074
x2 = 0.7812 | 1.167 | 1.073
x2 = 0.8512 | 1.165 | 1.073

CCC(=O)CC + COC(=O)c1ccccc1
viscosity [mPa·s], 101 kPa
Conditions | x2 = 0.0869 | x2 = 0.176 | x2 = 0.2669 | x2 = 0.3636 | x2 = 0.4616 | x2 = 0.5586 | x2 = 0.6631 | x2 = 0.7718 | x2 = 0.8792
303.15 K | 0.486 | 0.557 | 0.634 | 0.722 | 0.822 | 0.932 | 1.07 | 1.235 | 1.422
313.15 K | 0.43 | 0.485 | 0.548 | 0.619 | 0.7 | 0.79 | 0.896 | 1.025 | 1.169

OCc1ccccc1 + Cc1ccccc1
viscosity [mPa·s]
Conditions | 293.15 K | 303.15 K | 313.15 K | 323.15 K
100 kPa, x1 = 0.1006 | 0.699 | – | – | –
100 kPa, x1 = 0.1997 | 0.851 | – | – | –
100 kPa, x1 = 0.3007 | 1.051 | – | – | –
100 kPa, x1 = 0.402 | 1.329 | – | – | –
100 kPa, x1 = 0.502 | 1.717 | – | – | –
100 kPa, x1 = 0.6 | 2.158 | – | – | –
100 kPa, x1 = 0.6925 | 2.764 | – | – | –
100 kPa, x1 = 0.7994 | 3.659 | – | – | –
100 kPa, x1 = 0.8995 | 4.821 | – | – | –
101 kPa, x2 = 0.0973 | – | 3.563 | 2.793 | 2.117
101 kPa, x2 = 0.1952 | – | 2.788 | 2.237 | 1.73
101 kPa, x2 = 0.2937 | – | 2.226 | 1.781 | 1.403
101 kPa, x2 = 0.3927 | – | 1.758 | 1.44 | 1.157
101 kPa, x2 = 0.4924 | – | 1.386 | 1.15 | 0.9401
101 kPa, x2 = 0.5927 | – | 1.107 | 0.9561 | 0.7918
101 kPa, x2 = 0.6936 | – | 0.8989 | 0.7776 | 0.6576
101 kPa, x2 = 0.7951 | – | 0.7359 | 0.6508 | 0.5456
101 kPa, x2 = 0.8972 | – | 0.6154 | 0.5511 | 0.4771

Nc1ccccc1[N+](=O)[O-] + ClC(Cl)(Cl)Cl
viscosity [mPa·s], 101 kPa
Conditions | 303.15 K | 308.15 K | 313.15 K | 318.15 K | 323.15 K
x1 = 0.02174 | 0.8952 | 0.8298 | 0.7841 | 0.7321 | 0.6886
x1 = 0.08489 | – | 1 | 0.9361 | 0.874 | 0.8093

CCC(=O)CC + ClC=C(Cl)Cl
viscosity [mPa·s], 101.33 kPa
Conditions | x2 = 0.1126 | x2 = 0.2042 | x2 = 0.2941 | x2 = 0.4591 | x2 = 0.5988 | x2 = 0.6807 | x2 = 0.7837 | x2 = 0.8997
298.15 K | 0.439 | 0.463 | 0.489 | 0.532 | 0.57 | 0.582 | 0.598 | 0.614
308.15 K | 0.402 | 0.426 | 0.449 | 0.491 | 0.523 | 0.539 | 0.558 | 0.574
318.15 K | 0.379 | 0.401 | 0.422 | 0.462 | 0.494 | 0.508 | 0.525 | 0.544

OCc1ccccc1 + Clc1ccccc1
303.15 K, 101 kPa
Conditions | viscosity [mPa·s]
x1 = 0.1372 | 0.9498
x1 = 0.2844 | 1.158
x1 = 0.3371 | 1.26
x1 = 0.4255 | 1.459
x1 = 0.5741 | 1.907
x1 = 0.6507 | 2.212
x1 = 0.7556 | 2.713
x1 = 0.8031 | 2.982
x1 = 0.9053 | 3.662

CCOC(=O)CC#N + N#CCc1ccccc1
viscosity [mPa·s], 101 kPa
Conditions | x2 = 0.1383 | x2 = 0.4842 | x2 = 0.8426
303.15 K | 2.135 | 1.995 | –
313.15 K | – | – | 1.535

CC(=O)OC(C)=O + O
viscosity [mPa·s], 101 kPa
Conditions | x1 = 0.2 | x1 = 0.4 | x1 = 0.45 | x1 = 0.5 | x1 = 0.6 | x1 = 0.8
298.15 K | 2.189 | 1.852 | 1.497 | 1.193 | 1.059 | 0.936
313.15 K | 1.484 | 1.294 | 1.104 | 0.921 | 0.835 | 0.735

CCCCCCCCCCCCCC[P+](CCCCCC)(CCCCCC)CCCCCC.[O-]c1ccccc1 + O
Conditions | viscosity [mPa·s]
298.15 K, 100 kPa, x2 = 0.69 | 183

CCN(CC)C(C)=O + O
298.16 K, 101 kPa
Conditions | viscosity [mPa·s]
x2 = 0.065 | 1.32
x2 = 0.1626 | 1.56
x2 = 0.255 | 1.86
x2 = 0.3529 | 2.26
x2 = 0.4791 | 2.92
x2 = 0.6036 | 3.7
x2 = 0.6894 | 4.22
x2 = 0.7465 | 4.38
x2 = 0.7702 | 4.36
x2 = 0.8188 | 4.2
x2 = 0.9049 | 2.45

NCCO.O=S(=O)([N-]S(=O)(=O)C(F)(F)F)C(F)(F)F.[Li+] + O
323.15 K, 101 kPa
Conditions | viscosity [mPa·s]
x1 = 0.03 | 1.2
x1 = 0.0597 | 2.1
x1 = 0.1001 | 3.72
x1 = 0.1995 | 8.33
x1 = 0.298 | 23.19
x1 = 0.4016 | 56.22
x1 = 0.4908 | 103.5
x1 = 0.6602 | 251.5
x1 = 0.8109 | 498.1
x1 = 0.8996 | 741.6

O=S(=O)([O-])[O-].[Cu+2] + O
viscosity [mPa·s]
Conditions | 308.15 K | 313.15 K | 323.15 K
101.3 kPa, x1 = 0.00112 | 0.742 | 0.673 | 0.5823
101.3 kPa, x1 = 0.002247 | 0.7918 | 0.7176 | 0.6001
101.3 kPa, x1 = 0.004484 | 0.8376 | 0.7579 | 0.6314
101.3 kPa, x1 = 0.008927 | 0.9348 | 0.8476 | 0.7076
101.3 kPa, x1 = 0.0177 | – | 0.977 | 0.817
101.33 kPa, x1 = 0.000905 | 0.7428 | 0.6739 | 0.5628
101.33 kPa, x1 = 0.002718 | 0.7922 | 0.7182 | 0.6005
101.33 kPa, x1 = 0.00453 | 0.838 | 0.7585 | 0.6319
101.33 kPa, x1 = 0.006344 | 0.8866 | 0.8013 | 0.6685
101.33 kPa, x1 = 0.008159 | 0.9348 | 0.8482 | 0.7082

CCCCCCCCCCCCCC[P+](CCCCCC)(CCCCCC)CCCCCC.[O-]c1ccccc1 + O=C=O
Conditions | viscosity [mPa·s]
298.15 K, 100 kPa, x2 = 0.5 | 368

OCc1ccccc1 + O=[N+]([O-])c1ccccc1
303.15 K, 101 kPa
Conditions | viscosity [mPa·s]
x1 = 0.1725 | 1.292
x1 = 0.2352 | 1.292
x1 = 0.3083 | 1.389
x1 = 0.4517 | 1.657
x1 = 0.5919 | 2.015
x1 = 0.6592 | 2.234
x1 = 0.7706 | 2.658
x1 = 0.8314 | 2.956
x1 = 0.9106 | 3.486

NCCO + OCCO
101.33 kPa
Conditions | viscosity [mPa·s]
293.15 K, x2 = 0.1246 | 29.94
293.15 K, x2 = 0.2055 | 32.9
293.15 K, x2 = 0.2907 | 35.07
293.15 K, x2 = 0.4172 | 36.01
293.15 K, x2 = 0.496 | 34.47
293.15 K, x2 = 0.5176 | 33.73
293.15 K, x2 = 0.6654 | 29.06
293.15 K, x2 = 0.701 | 28.14
293.15 K, x2 = 0.789 | 25.17
293.15 K, x2 = 0.8248 | 23.8
293.15 K, x2 = 0.8691 | 22.48
293.15 K, x2 = 0.9427 | 21.11
293.15 K, x2 = 0.9527 | 20.92
303.15 K, x1 = 0.155 | 16.74
303.15 K, x1 = 0.303 | 19.61
313.15 K, x1 = 0.155 | 11.41
313.15 K, x1 = 0.303 | 13.08
323.15 K, x1 = 0.155 | 8.112
323.15 K, x1 = 0.303 | 9.172

OCc1ccccc1 + OCCO
293.15 K, 101.33 kPa
Conditions | viscosity [mPa·s]
x2 = 0.0946 | 7.031
x2 = 0.1648 | 7.627
x2 = 0.1834 | 7.781
x2 = 0.2979 | 8.824
x2 = 0.4721 | 10.98
x2 = 0.5503 | 12.18
x2 = 0.6255 | 13.48
x2 = 0.6888 | 14.69
x2 = 0.7556 | 16.05
x2 = 0.7929 | 16.82
x2 = 0.8219 | 17.42
x2 = 0.8789 | 18.75
x2 = 0.9113 | 19.36

[Br-].[Na+] + OCCO
101 kPa, x1 = 0.142
Conditions | viscosity [mPa·s]
303 K | 39.03
313 K | 25.16
323 K | 17.24

CCCC[n+]1ccn(C)c1.C[C@H](N)C(=O)[O-] + OCc1ccccc1
101 kPa
Conditions | viscosity [mPa·s]
298.15 K, x1 = 0.4864 | 18.75
313.15 K, x1 = 0.6945 | 18.65
